Patent US5480906A, “Stereochemical Wortmannin derivatives” (priority 1994, dated 1996)

Key:
[1] = molecular target: purified bovine brain PI 3-kinase; assay: Assay of purified PI-3 kinase activity (32P incorporation into phosphatidylinositol, TLC/scintillation); format: biochemical; settings: for IC50 for inhibition of PI-3-kinase: purified bovine brain PI 3-kinase, 10 min preincubation, 20 μM ATP, 3% DMSO
Description: In another, preferred, method, PI 3-kinase was prepared from bovine brain. Two bovine brains (wet weight about 900 g) were obtained from a local slaughterhouse within minutes of slaughter, packed on ice, and homogenized within one hour. Brains were trimmed of excess fat and blood vessels and then homogenized using a Tekmar Tissuemizer (Cincinnati, Ohio) at 4° C. in 20 mM of Tris(pH 8.3) containing 250 mM of sucrose, 6 mM of β-mercaptoethanol, 1 μg/ml of leupeptin, 1 μg/ml of pepstatin A, 0.4 mM of PMSF, and 1 mM of MgCl2.
Following centrifugation for 60 minutes at 10,000 x g, the pH of the supernatant (about 1200 mL) was lowered to 5.75 using dropwise addition of 1M acetic acid at 4° C. After stirring for an additional 15 minutes at 4° C., the solution was centrifuged for 60 minutes at 13,500 x g. The supernatant was discarded. Pellets were resuspended in Buffer A (20 mM of Tris, pH 8.3, containing 6 mM of β-mercaptoethanol, 0.1 mM of ethylene glycol-bis(β-aminoethyl ether) N,N,N',N'-tetraacetic acid (EGTA), 1 μg/mL of leupeptin, 1 μg/mL of pepstatin A, and 1 mM of MgCl2), and loaded onto a Fast Flow Q Sepharose column (300 ml) at a flow rate of 5 mL/min at 4° C. After loading, the column was washed with 3 volumes of Buffer A containing 0.1M of KCl and the kinase was then eluted with a linear gradient of Buffer A/0.1M KCl to Buffer A/0.6M KCl at 3 mL/min over 7 volumes.
Fractions were assayed for PI 3-kinase activity using 10 μL of the fraction and phosphatidylinositol as substrate as described below. PI 4-kinase eluted in the breakthrough; PI 3-kinase eluted at approximately 0.3M of KCl. The PI 3-kinase pool was subjected to a 40% ammonium sulfate precipitation. Following centrifugation (60 minutes at 13,500 x g), pellets were resuspended in Buffer B (10 mM of potassium phosphate, pH 7.4, containing 6 mM of β-mercaptoethanol, 1 μg/mL of leupeptin, 1 μg/mL of pepstatin A, and 1 mM of MgCl2), and loaded onto a 50 mL hydroxylapatite column (Calbiochem, Inc., La Jolla, Calif.) at 2.5 mL/minute. The column was washed with 150 mL Buffer B until the A280 baseline reached zero, and the kinase was then eluted with a linear gradient of 10-320 mM of KH2 PO4 at 1 mL/minute over 450 minutes.
Active fractions were pooled and then loaded at 3 mL/minute onto a MonoS column (8 ml) (Pharmacia, Inc., Piscataway, N.J.) equilibrated in Buffer C (50 mM of MES, pH 6.2, containing 6 mM of β-mercaptoethanol, 0.1 mM of EGTA, 1 μg/mL of leupeptin, 1 μg/mL of pepstatin A, and 1 mM of MgCl2). PI 3-kinase was eluted with a linear gradient of 0-0.4M KCl in Buffer C over 120 minutes. In assaying fractions, two pools of PI 3-kinase activity were routinely found. The bulk of the activity was found in the flow-through, while about 20% of the activity was eluted in the gradient. Although the material in the gradient had considerable PI 4-kinase activity, essentially no PI 4-kinase activity was associated with the PI 3-kinase eluted in the flow-through. Therefore, the MonoS flow-through was concentrated by tangential flow filtration on a Mini-Ultrasette Omega 50 K membrane (Filtron, Inc., Northborough, Mass.) and diluted in Buffer C to lower the conductivity. The material was then reloaded onto the MonoS column using the above conditions. The PI 3-kinase bound to the column during the wash and was eluted in the gradient. Two pools of phosphatidylinositol kinase activity were obtained in the gradient; each was assayed for PI 3-kinase and PI 4-kinase activity.
Pool I from the MonoS column was diluted with Buffer A and chromatographed on MonoQ (1 ml) and eluted with a gradient of 0-0.4M KCl in Buffer A. The final pool was assayed for PI 3-kinase and PI 4-kinase activity.
PI 3-kinase activity was measured as previously described by Matter, W. F., et al., Biochemical and Biophysical Research Communications, 186: 624-631 (1992). […]

laboratory animals = settings: even in low dosages, pure form; cited from earlier work

Compound | IC50 for inhibition of PI-3-kinase [1] [ng/mL] | inhibition vs. PI-3-kinase ([1]; at 10 ng/ml) [%] | toxicity to living creatures (lethality) (laboratory animals)
CCCC(=O)O[C@@H]1C[C@]2(C)C(=O)CC[C@H]2C2=C1[C@]1(C)c3c(coc3C2=O)C(=O)O[C@@H]1COC [h, 11-butyryl-desacetyl-Wortmannin] | 0.4 |  | 
COC[C@H]1OC(=O)c2coc3c2[C@@]1(C)C1=C(C3=O)[C@@H]2CCC(=O)[C@@]2(C)C[C@H]1OC(=O)CC(C)C [iA, 11-isovaleryl-desacetyl-Wortmannin] | 1.16 |  | 
COC[C@H]1OC(=O)c2coc3c2[C@@]1(C)C1=C(C3=O)[C@@H]2CCC(=O)[C@@]2(C)C[C@H]1O [f, 11-desacetyl wortmannin] | 10 | 50 | 
C=CC(=O)O[C@@H]1C[C@]2(C)C(=O)CC[C@H]2C2=C1[C@]1(C)c3c(coc3C2=O)C(=O)O[C@@H]1COC [m, 11-acrylyl-desacetyl-wortmannin] | 0.95 |  | 
CCC(=O)O[C@@H]1C[C@]2(C)[C@@H](OC(C)=O)CC[C@H]2C2=C1[C@]1(C)c3c(coc3C2=O)C(=O)O[C@@H]1COC [j, 11-propionyl-17-acetyl-desacetyl-dihydro-Wortmannin] | 56.5 |  | 
CCC(=O)O[C@@H]1C[C@]2(C)[C@@H](O)CC[C@H]2C2=C1[C@]1(C)c3c(coc3C2=O)C(=O)O[C@@H]1COC [e, 11-propionyl-17-hydroxy-desacetyl-dihydro-Wortmannin] | 0.38 |  | 
COC[C@H]1OC(=O)c2coc3c2[C@@]1(C)C1=C(C3=O)[C@@H]2CCC(=O)[C@@]2(C)C[C@H]1OC(=O)CCl [l, 11-chloroacetyldesacetyl-Wortmannin] | 1.3 |  | 
CCCCC(=O)O[C@@H]1C[C@]2(C)C(=O)CC[C@H]2C2=C1[C@]1(C)c3c(coc3C2=O)C(=O)O[C@@H]1COC [i, 11-valeryl-desacetyl-Wortmannin] | 1.2 |  | 
COC[C@H]1OC(=O)c2coc3c2[C@@]1(C)C1=C(C3=O)[C@@H]2CCC(=O)[C@@]2(C)CC1=O [c, 11-dehydro Wortmannin] | 1.6 |  | 
COC[C@H]1OC(=O)c2coc3c2[C@@]1(C)C1=C(C3=O)[C@@H]2CCC(=O)[C@@]2(C)C[C@H]1OC(=O)CCN(C)C [k, 11-dimethylaminopropionyl-desacetyl-Wortmannin] | 8.6 |  | 
COC[C@H]1OC(=O)c2coc3c2[C@@]1(C)C1=C(C3=O)[C@@H]2CCC(=O)[C@@]2(C)C[C@H]1OC(C)=O [wortmannin, Wortmannin] |  |  | often lethal
CCC(=O)O[C@@H]1C[C@]2(C)C(=O)CC[C@H]2C2=C1[C@]1(C)c3c(coc3C2=O)C(=O)O[C@@H]1COC [g, 11-propionyl-desacetyl-Wortmannin] | 0.6 |  | 
COC[C@H]1OC(=O)c2coc3c2[C@@]1(C)C1=C(C3=O)[C@@H]2CCC(=O)[C@@]2(C)C[C@H]1OC(=O)Cc1ccccc1 [n, 11-phenylacetyl-desacetyl-Wortmannin] | 1.53 |  | 
COC[C@H]1OC(=O)c2coc3c2[C@@]1(C)C1=C(C3=O)[C@@H]2CCC(O)[C@@]2(C)C[C@H]1O (stereo partly shown) [d, 11,17-desacetyl-dihydro Wortmannin] | > 10 |  | 
CCN(C=C1C(=O)O[C@H](COC)[C@@]2(C)C1=C(O)C(=O)C1=C2[C@H](O)C[C@]2(C)C(=O)CC[C@@H]12)CC [b] | > 10 |  | 
